The assay deals with T1, Lysosomal acid glucosylceramidase (Homo sapiens, UniProt P04062).
T1 sequence (P04062 whole entry): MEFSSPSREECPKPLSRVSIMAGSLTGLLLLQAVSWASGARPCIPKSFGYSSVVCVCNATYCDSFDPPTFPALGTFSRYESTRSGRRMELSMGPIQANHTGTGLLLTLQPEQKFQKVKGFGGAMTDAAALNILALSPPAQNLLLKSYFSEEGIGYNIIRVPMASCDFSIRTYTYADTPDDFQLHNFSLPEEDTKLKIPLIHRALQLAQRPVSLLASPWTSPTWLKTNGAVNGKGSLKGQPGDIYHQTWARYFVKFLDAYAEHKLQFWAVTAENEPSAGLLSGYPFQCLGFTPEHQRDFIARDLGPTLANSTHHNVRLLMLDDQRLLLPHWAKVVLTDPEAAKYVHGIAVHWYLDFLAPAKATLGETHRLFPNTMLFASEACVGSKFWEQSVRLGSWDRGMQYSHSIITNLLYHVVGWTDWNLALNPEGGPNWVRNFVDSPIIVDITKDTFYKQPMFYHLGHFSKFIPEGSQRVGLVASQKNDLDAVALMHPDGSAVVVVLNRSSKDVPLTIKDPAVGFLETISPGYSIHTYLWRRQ
The assay can be described thus: Inhibiton Assay. The conditions noted are these: pH 5.5; 37 °C. The method, then:
Beta-glucocerebrosidase (GCase) activity was measured by release of 4-methylumbelliferyl fluorophore from MUClc.
A word on the IC50: it is the midpoint of a concentration-inhibition curve. Lower therefore signals inhibition by little substance. In the case of `Nc1nc(N)c2cc([N+](=O)[O-])ccc2n1` [2,4-diamino-6-nitro-quinazoline, 1a], 61 µM corresponded to half-maximal inhibition (IC50).

`CCOc1ccc2c(N)nc(N)nc2c1OCC` [7,8-diethoxy-quinazoline 2,4-diamine, 1b] yielded an IC50 of 22 µM.

Consider `CC(C)(C)C(=O)Nc1ccncc1` [2,2-dimethyl-N-(4-pyridinyl)propanamide, 2b], for which the half-maximal inhibitory concentration (IC50) was above 400 µM.

On to `O=C(Nc1ccncc1)c1ccc(Oc2cc(Cl)cc(Cl)c2)o1` [5-(3,5-dichlorophenoxy)-N-(4-pyrdinyl)-2-furamide, 2], for which the IC50 came to 4.7 µM.

`Cc1ccc(Sc2cccc3nc(N)nc(N)c23)cc1`: the IC50 was 7.8 µM.
